Experimental data from EP4603105A1, “PHARMACEUTICAL COMPOSITION CONTAINING CYCLIC COMPOUND HAVING SELECTIVE KRAS INHIBITORY EFFECT AGAINST HRAS AND NRAS” (CHUGAI SEIYAKU KABUSHIKI KAISHA, priority 2022, dated 2024).
Where a SMILES comes first, the peptide text is derived from it. Bridges are numbered along the chain shown (N, C = ends). [ ]: non-standard residue; d: D form. The star is where a group is joined. ξ: configuration not given here. hPhe(3,5-F2-4-CF3) = N[C@@H](CCc1cc(F)c(C(F)(F)F)c(F)c1)C(=O)O; hPhe(3-Cl-4-CF3) = N[C@@H](CCc1ccc(C(F)(F)F)c(Cl)c1)C(=O)O; NPrPhe(4-CF3) = CCCN[C@@H](Cc1ccc(C(F)(F)F)cc1)C(=O)O; NEtPhe(4-Me) = CCN[C@@H](Cc1ccc(C)cc1)C(=O)O; NMeGly(cPent) = CN[C@H](C(=O)O)C1CCCC1; Nva(3-Et) = CCC(CC)[C@H](N)C(=O)O; Hyp = O=C(O)[C@@H]1C[C@@H](O)CN1; NMeD = CN[C@@H](CC(=O)O)C(=O)O; NMeL = CN[C@@H](CC(C)C)C(=O)O; ξNMeD = CNC(CC(=O)O)C(=O)O; Morpholide = C1CN(*)CCO1; NMeA = CN[C@@H](C)C(=O)O; Ac5c = NC1(C(=O)O)CCCC1; Aze = O=C(O)[C@@H]1CCN1; ξP = O=C(O)C1CCCN1; Sar = CNCC(=O)O

Columns and labels:
[1] = biological target: GDP-bound NRAS wild-type protein (Homo sapiens, UniProt P01111); experiment: Binding to NRAS by surface plasmon resonance (SPR), KD and KD ratio to KRAS
Chain of GDP-bound NRAS wild-type protein (P01111 whole entry): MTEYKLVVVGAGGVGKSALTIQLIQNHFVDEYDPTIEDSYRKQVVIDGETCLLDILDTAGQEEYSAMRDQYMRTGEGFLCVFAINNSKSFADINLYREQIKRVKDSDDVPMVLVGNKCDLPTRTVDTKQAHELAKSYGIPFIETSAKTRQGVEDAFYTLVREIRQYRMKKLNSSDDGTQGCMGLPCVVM
Procedure, shortened: (§1)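 Single-cycle kinetics on GDP-loaded biotin-Avi RAS captured to ~100–300 RU; 75 s ascending injections, 100 µL/min, 30°C. HBS pH 7.4 + 10 mM MgCl2/10 µM GDP/4% DMSO. 1:1 fit, KD.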

HRAS wild-type protein = HRAS wild-type protein (Homo sapiens, UniProt P01112); experiment: Binding to HRAS by surface plasmon resonance (SPR), KD and KD ratio to KRAS
Chain of HRAS wild-type protein (P01112 whole entry): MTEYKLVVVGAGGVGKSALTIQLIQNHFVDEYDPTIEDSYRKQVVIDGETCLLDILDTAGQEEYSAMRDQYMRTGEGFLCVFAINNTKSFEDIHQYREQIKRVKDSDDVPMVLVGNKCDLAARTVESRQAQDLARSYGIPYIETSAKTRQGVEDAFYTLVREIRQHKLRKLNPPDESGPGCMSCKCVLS
Procedure, shortened: as §1

[2] = test system: human lung cancer strain NCI-H441; assay type: cell-based
Procedure, shortened: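 Proliferation was scored by […] measured after the reagent was added to cultures kept at 37°C in 5% carbon dioxide.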

[3] = ratio of the KD value with respect to GDP-bound NRAS wild-type protein to the KD value with respect to KRAS
[4] = ratio of the KD value with respect to HRAS wild-type protein to the KD value with respect to KRAS
[5] = ratio of KD for GDP-bound NRAS wild-type protein to KD for KRAS
[6] = ratio of KD for HRAS wild-type protein to KD for KRAS

Structure (SMILES) | NRAS /KRAS [1, 3] | HRAS /KRAS (HRAS wild-type protein; [4]) | IC50 [2] [nM] | NRAS /KRAS ([1]; ratio of KD value for GDP-bound NRAS wild-type protein to KD value for KRAS (SPR)) | HRAS /KRAS (HRAS wild-type protein; ratio of KD value for HRAS wild-type protein to KD value for KRAS (SPR)) | NRAS /KRAS [1, 5] | HRAS /KRAS (HRAS wild-type protein; [6])
CCO[C@@H]1C[C@H]2C(=O)NC3(CC(C)(C)C3)C(=O)N(C)[C@@H](C3CCCC3)C(=O)N(C)[C@H](C(=O)N(C)CC)CC(=O)N(C)[C@@H](C3CC3)C(=O)N[C@@H]([C@@H](C)CC)C(=O)N(C)CC(=O)N(C)[C@H]3C/C=C\CCN(C3=O)[C@@H](Cc3ccc(C(F)(F)F)cc3)C(=O)N(C)CC(=O)N[C@@H](CCc3cc(F)c(C(F)(F)F)c(F)c3)C(=O)N2C1 [PP2036] | A (a compound having 10 or more and less than 20 is denoted as A) | A (a compound having 10 or more and less than 20 is denoted as A) | 9.1 | – | – | – | –
CC[C@H](C)[C@@H]1NC(=O)[C@H](C2CC2)N(C)C(=O)C[C@@H](C(=O)N(C)C)N(C)C(=O)[C@H](C2CCCC2)N(C)C(=O)C2(CCCC2)N(C)C(=O)[C@@H]2C[C@@H](C)CN2C(=O)[C@H](CCc2cc(F)c(C(F)(F)F)c(F)c2)NC(=O)CN(C)C(=O)[C@H](Cc2ccc(C)cc2)N2CC/C=C\C[C@@H](C2=O)N(C)C(=O)CN(C)C1=O [PP1813] | – | – | 22.6 | A (a compound having 10 or more and less than 20 is denoted as A) | B (a compound having 3 or more and less than 10 is denoted as B) | – | –
CCO[C@@H]1C[C@H]2C(=O)NC3(CC(C)(C)C3)C(=O)N(C)[C@@H](C(CC)CC)C(=O)N(C)[C@H](C(=O)N(C)C)CC(=O)N(C)[C@@H](C)C(=O)N[C@@H]([C@@H](C)CC)C(=O)N(C)CC(=O)N(C)[C@H]3C/C=C\CCN(C3=O)[C@@H](Cc3ccc(C)cc3)C(=O)N(C)CC(=O)N[C@@H](CCc3ccc(C(F)(F)F)c(Cl)c3)C(=O)N2C1 [PP2150] | AA (a compound having 20 or more is denoted as AA) | A (a compound having 10 or more and less than 20 is denoted as A) | 58 | – | – | – | –
CCO[C@@H]1C[C@H]2C(=O)NC3(CCC3)C(=O)N(C)[C@@H](C(CC)CC)C(=O)N(C)[C@H](C(=O)N3CCOCC3)CC(=O)N(C)[C@@H](CC(C)C)C(=O)N[C@@H]([C@@H](C)CC)C(=O)N(C)CC(=O)N(C)[C@H]3CCCCN(C3=O)[C@@H](Cc3ccc(C(F)(F)F)cc3)C(=O)N(C)CC(=O)N[C@@H](CCc3cc(F)c(C(F)(F)F)c(F)c3)C(=O)N2C1 [PP0811] | – | – | 9.8 | – | – | B (a compound having 3 or more and less than 10 is denoted as B) | B (a compound having 3 or more and less than 10 is denoted as B)
CCCN1C(=O)CN(C)C(=O)CN(C)C(=O)[C@H](C(CC)CC)NC(=O)[C@H](CC(C)C)N(C)C(=O)C[C@@H](C(=O)N(C)C)N(C)C(=O)[C@H](C2CCCC2)N(C)C(=O)C2(CCCC2)NC(=O)[C@@H]2CCCN2C(=O)[C@H](CCc2cc(F)c(C(F)(F)F)c(F)c2)NC(=O)CN(C)C(=O)[C@@H]1Cc1ccc(C(F)(F)F)cc1 [PP0747] ([NMeL][Nva(3-Et)][Sar][Sar][NPrPhe(4-CF3)][Sar][hPhe(3,5-F2-4-CF3)]P[Ac5c][NMeGly(cPent)][NMeD]-NMe2; lactam N-11) | B (a compound having 3 or more and less than 10 is denoted as B) | C (A compound having a KD ratio of 0.1 or more and less than 3 is denoted as C) | 45.9 | – | – | – | –
CCCN1C(=O)CN(C)C(=O)CNC(=O)[C@H]([C@@H](C)CC)NC(=O)[C@H](CC(C)C)N(C)C(=O)C[C@@H](C(=O)N(C)C)N(C)C(=O)[C@H](C2CCCC2)N(C)C(=O)C2(CCCC2)NC(=O)[C@@H]2C[C@@H](OCC)CN2C(=O)[C@H](CCc2ccc(C(F)(F)F)c(Cl)c2)NC(=O)CN(C)C(=O)[C@@H]1Cc1ccc(C(F)(F)F)cc1 [PP0421] ([NMeL]IG[Sar][NPrPhe(4-CF3)][Sar][hPhe(3-Cl-4-CF3)][Hyp](Et)[Ac5c][NMeGly(cPent)][NMeD]-NMe2; lactam N-11) | B (a compound having 3 or more and less than 10 is denoted as B) | C (A compound having a KD ratio of 0.1 or more and less than 3 is denoted as C) | 2 | – | – | – | –
CC[C@H](C)[C@@H]1NC(=O)[C@H](CC(C)C)N(C)C(=O)C[C@@H](C(=O)N(C)C)N(C)C(=O)[C@H](C2CCCC2)N(C)C(=O)C2(CCCC2)NC(=O)[C@@H]2CCCN2C(=O)[C@H](CCc2cc(F)c(C(F)(F)F)c(F)c2)NC(=O)CN(C)C(=O)[C@H](Cc2ccc(C(F)(F)F)cc2)N2CCCC[C@@H](C2=O)N(C)C(=O)CN(C)C1=O [PP0569] | C (A compound having a KD ratio of 0.1 or more and less than 3 is denoted as C) | B (a compound having 3 or more and less than 10 is denoted as B) | 2.8 | – | – | – | –
CCCN1C(=O)CN(C)C(=O)CN(C)C(=O)[C@H]([C@@H](C)CC)NC(=O)[C@H](CC(C)C)N(C)C(=O)CC(C(=O)N2CCOCC2)N(C)C(=O)[C@H](C2CCCC2)N(C)C(=O)C2(CCCC2)NC(=O)[C@@H]2CCCN2C(=O)[C@H](CCc2ccc(C(F)(F)F)c(Cl)c2)NC(=O)C2CCCN2C(=O)[C@@H]1Cc1ccc(C(F)(F)F)cc1 (stereo partly drawn) [PP0149] ([NMeL]I[Sar][Sar][NPrPhe(4-CF3)][ξP][hPhe(3-Cl-4-CF3)]P[Ac5c][NMeGly(cPent)][ξNMeD]-Morpholide; lactam N-11) | – | – | 317 | – | – | C (A compound having a KD ratio of 0.1 or more and less than 3 is denoted as C) | B (a compound having 3 or more and less than 10 is denoted as B)
CC[C@H](C)[C@@H]1NC(=O)[C@H](CC(C)C)N(C)C(=O)C[C@@H](C(=O)N2CCOCC2)N(C)C(=O)[C@H](C2CCCC2)N(C)C(=O)C2(CCC2)NC(=O)[C@@H]2C[C@@H](OCC(F)F)CN2C(=O)[C@H](CCc2cc(F)c(C(F)(F)F)c(F)c2)NC(=O)CN(C)C(=O)[C@H](Cc2ccc(C(F)(F)F)cc2)N2CCCC[C@@H](C2=O)N(C)C(=O)CN(C)C1=O [PP1002] | – | – | 2.1 | – | – | B (a compound having 3 or more and less than 10 is denoted as B) | B (a compound having 3 or more and less than 10 is denoted as B)
CCO[C@@H]1C[C@H]2C(=O)NC3(CCCC3)C(=O)N(C)[C@@H](C3CCCC3)C(=O)N(C)[C@H](C(=O)N3CCOCC3)CC(=O)N(C)[C@@H](CC(C)C)C(=O)N[C@@H]([C@@H](C)CC)C(=O)N(C)[C@@H](C)C(=O)N3CC[C@H]3C(=O)N(CC)[C@@H](Cc3ccc(C)cc3)C(=O)N(C)CC(=O)N[C@@H](CCc3ccc(C(F)(F)F)c(Cl)c3)C(=O)N2C1 [PP0014] ([NMeL]I[NMeA][Aze][NEtPhe(4-Me)][Sar][hPhe(3-Cl-4-CF3)][Hyp](Et)[Ac5c][NMeGly(cPent)][NMeD]-Morpholide; lactam N-11) | – | – | 2 | – | – | C (A compound having a KD ratio of 0.1 or more and less than 3 is denoted as C) | C (A compound having a KD ratio of 0.1 or more and less than 3 is denoted as C)
CCC[C@H]1C(=O)N[C@@H]([C@@H](C)CC)C(=O)N(C)CC(=O)N(C)[C@H]2C/C=C\CCN(C2=O)[C@@H](Cc2ccc(C)cc2)C(=O)N(C)CC(=O)N[C@@H](CCc2ccc(Cl)c(Cl)c2)C(=O)N2CCCCC[C@H]2C(=O)NC2(CC(C)(C)C2)C(=O)N(C)[C@@H](C(CC)CC)C(=O)N(C)[C@H](C(=O)N(C)C)CC(=O)N1C [PP2962] | – | – | 39.2 | – | – | AA (a compound having 20 or more is denoted as AA) | A (a compound having 10 or more and less than 20 is denoted as A)
